Measured values: patent US20030212116A1 (priority 1999, published 2003)

Which melting point does the source give for COC(=O)Cc1ccccc1N=C1N(C)CC(=O)N1C here?
The melting point was 57 to 59 °C.
